Experimental data as given in paper PMC5382172 (Frontiers in Molecular Neuroscience, 2017).
Values joined by “and” are separate entries in the source; they are usually repeats but may differ in a detail not shown here. Identical values can stand only once.

What was measured:
GluClαWT/βWT receptor = molecular target: T1, GluClαWT/βWT receptor (Caenorhabditis elegans, UniProt G5EBR3+Q17328); assay: Whole-cell patch clamp in CHO cells, GluClαWT/βWT receptor; assay type: cell-based
T1 construct: entry codes of the full-length subunits used in this study; expressed in transfected cells; host or cells: CHO cells, transient co-transfection 1:1, pcDNA3.1
T1 sequence (G5EBR3 21-461): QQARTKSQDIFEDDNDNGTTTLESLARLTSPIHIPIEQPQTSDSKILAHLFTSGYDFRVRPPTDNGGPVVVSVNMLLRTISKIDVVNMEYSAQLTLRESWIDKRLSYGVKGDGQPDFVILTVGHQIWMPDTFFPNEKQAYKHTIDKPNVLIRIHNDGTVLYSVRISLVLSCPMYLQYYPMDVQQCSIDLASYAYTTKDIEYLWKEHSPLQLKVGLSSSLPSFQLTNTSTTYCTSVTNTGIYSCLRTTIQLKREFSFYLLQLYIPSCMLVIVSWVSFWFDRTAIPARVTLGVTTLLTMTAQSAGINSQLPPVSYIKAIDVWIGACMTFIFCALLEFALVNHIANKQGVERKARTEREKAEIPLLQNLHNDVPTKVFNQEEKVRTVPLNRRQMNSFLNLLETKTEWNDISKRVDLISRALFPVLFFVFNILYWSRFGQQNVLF
T1 sequence (Q17328 23-434): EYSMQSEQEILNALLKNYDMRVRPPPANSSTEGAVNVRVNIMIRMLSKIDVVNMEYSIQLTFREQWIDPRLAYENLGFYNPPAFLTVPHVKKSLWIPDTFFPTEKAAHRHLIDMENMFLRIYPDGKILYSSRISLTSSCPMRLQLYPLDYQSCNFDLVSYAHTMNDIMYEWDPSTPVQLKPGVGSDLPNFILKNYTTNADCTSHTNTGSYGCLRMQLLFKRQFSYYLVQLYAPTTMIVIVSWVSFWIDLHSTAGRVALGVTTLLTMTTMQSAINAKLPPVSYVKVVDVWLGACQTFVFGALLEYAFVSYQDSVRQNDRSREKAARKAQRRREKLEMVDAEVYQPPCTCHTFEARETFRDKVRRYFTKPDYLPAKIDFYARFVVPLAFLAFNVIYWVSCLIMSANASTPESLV
Experimental: (§1) Chinese hamster ovary (CHO) cells were cultured as previously (Bar-Lev et al., [2011]) in Dulbecco’s Modified Eagle Medium (DMEM) containing 10% fetal calf serum, 2 mM glutamax, 100 Units/ml penicillin G and 100 μg/ml streptomycin, and grown in 5% CO2 at 37°C under 90%–95% humidity. The cells were seeded on glass coverslips (13-mm diameter) placed in a 24-multiwell plate. […] For the expression of GluCl receptors, cells were transiently co-transfected with pcDNA3.1 plasmids containing the ORFs of interest using transit-LT1 transfection reagent (Mirus, Madison, WI, USA), according to the manufacturer’s protocol. The cDNAs encoding the C. elegans GluClα (GLC-1) or its mutated versions and the GluClβ (GLC-2) subunits (200–600 ng per well) were used at 1:1 ratio. The pIRES-CD8 plasmid (200 ng per well) was added to enable the visualization of the expressing cells by beads coated with anti-CD8 antibodies (Invitrogen). For high-level expression of the GluClαF276A/βWT mutant receptor in experiments assigned to determine its IVM-EC50, we used the X-tremeGENE HP DNA Transfection Reagent (Roche Life Science). Recordings were performed 72–96 h following the transfection.
Whole-cell patch clamp recordings were performed as described previously (Bar-Lev et al., [2011]) in CHO cells that were prepared as detailed above. The normal external solution (NES) contained (in millimolar): 140 NaCl, 2.8 KCl, 2 CaCl2, 2 MgCl2, 10 glucose and 10 HEPES, adjusted to pH 7.35 with NaOH (310 mOsm/L). The pipette solution contained (in millimolar): 130 KCl, 4 MgCl2, 4 Na2ATP, 1 EGTA and 10 HEPES, adjusted to pH 7.35 with KOH (290 mOsm/L). The osmolarity of these solutions was maintained by adding sucrose. The electrode resistance was 6–10 MΩ when filled with the pipette solution. External solutions were applied onto the cell by using the VC-77SP fast-step system (Warner Instruments, Hamden, CT, USA) combined with N2 pressure of 3–4 psi to produce laminar flow of the external solution onto the patched cell. All measurements were performed at room temperature. The currents were measured with an Axopatch 200B patch-clamp amplifier (Molecular Devices, Sunnyvale, CA, USA) and a Digidata 1440A interface (Molecular Devices). Acquisition of recording data was performed at 2.5 kHz and recordings were low-pass filtered at 1 kHz, through a four-pole Bessel filter. The pClamp 10 software (Molecular Devices) was used for data acquisition. […] Five-hundred milliseconds after the application started (which is also after the current reached to its peak at −60 mV), the voltage was stepped from −60 mV to −80 mV for 50 ms followed by a 250-ms-long voltage ramp ranging from −80 mV to +80 mV.
Dose-response curves were fitted to the data points by a nonlinear regression using the Hill Equation 1,

GluClαP192M/βWT receptor = molecular target: T2, GluClαP192M/βWT receptor (Caenorhabditis elegans, UniProt G5EBR3+Q17328, P192M); assay: Whole-cell patch clamp in CHO cells, GluClαP192M/βWT receptor; assay type: cell-based; conditions: 500 nM IVM, -60 mV
T2 construct: entry codes of the full-length subunits used in this study; expressed in transfected cells; host or cells: CHO cells, transient co-transfection 1:1, pcDNA3.1
T2 sequence (G5EBR3 21-461 P192M, one chain of several): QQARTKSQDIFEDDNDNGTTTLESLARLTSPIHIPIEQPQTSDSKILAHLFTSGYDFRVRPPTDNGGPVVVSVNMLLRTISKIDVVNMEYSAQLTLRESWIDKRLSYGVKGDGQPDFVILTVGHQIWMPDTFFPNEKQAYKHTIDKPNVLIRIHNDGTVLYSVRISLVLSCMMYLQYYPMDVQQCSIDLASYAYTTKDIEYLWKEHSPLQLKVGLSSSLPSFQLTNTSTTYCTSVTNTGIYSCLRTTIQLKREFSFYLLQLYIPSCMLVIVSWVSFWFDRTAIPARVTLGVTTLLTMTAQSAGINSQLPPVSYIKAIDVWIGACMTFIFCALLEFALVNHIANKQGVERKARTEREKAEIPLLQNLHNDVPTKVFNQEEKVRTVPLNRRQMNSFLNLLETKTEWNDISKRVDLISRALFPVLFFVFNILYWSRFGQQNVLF
Experimental: as §1, with “For high-level expression of the GluClαF276A/βWT mutant receptor in experiments assigned to determine its IVM-EC50, we used the X-tremeGENE HP DNA Transfection Reagent (Roche Life Science). Recordings were performed 72–96 h following the transfection.” left out
(§2) Whole-cell patch clamp recordings were performed as described previously (Bar-Lev et al., [2011]) in CHO cells that were prepared as detailed above. […] The currents were measured with an Axopatch 200B patch-clamp amplifier (Molecular Devices, Sunnyvale, CA, USA) and a Digidata 1440A interface (Molecular Devices). […]

GluClαY194R/βWT receptor = molecular target: T3, GluClαY194R/βWT receptor (Caenorhabditis elegans, UniProt G5EBR3+Q17328, Y194R); assay: Whole-cell patch clamp in CHO cells, GluClαY194R/βWT receptor; assay type: cell-based; conditions: 500 nM IVM, -60 mV
T3 construct: entry codes of the full-length subunits used in this study; expressed in transfected cells; host or cells: CHO cells, transient co-transfection 1:1, pcDNA3.1
T3 sequence (G5EBR3 21-461 Y194R, one chain of several): as the sequence (G5EBR3 21-461 P192M, one chain of several) above, with M172P, Y174R counted along it
Experimental: as §1, with “For high-level expression of the GluClαF276A/βWT mutant receptor in experiments assigned to determine its IVM-EC50, we used the X-tremeGENE HP DNA Transfection Reagent (Roche Life Science). Recordings were performed 72–96 h following the transfection.” left out
as §2

GluClαE273R/βWT receptor = molecular target: T4, GluClαE273R/βWT receptor (Caenorhabditis elegans, UniProt G5EBR3+Q17328, E273R); assay: Whole-cell patch clamp in CHO cells, GluClαE273R/βWT receptor; assay type: cell-based; conditions: 500 nM IVM, -60 mV
T4 construct: entry codes of the full-length subunits used in this study; expressed in transfected cells; host or cells: CHO cells, transient co-transfection 1:1, pcDNA3.1
T4 sequence (G5EBR3 21-461 E273R, one chain of several): as the sequence (G5EBR3 21-461 P192M, one chain of several) above, with M172P, E253R counted along it
Experimental: as §1, with “For high-level expression of the GluClαF276A/βWT mutant receptor in experiments assigned to determine its IVM-EC50, we used the X-tremeGENE HP DNA Transfection Reagent (Roche Life Science). Recordings were performed 72–96 h following the transfection.” left out
as §2

GluClαF276W/βWT receptor = molecular target: T5, GluClαF276W/βWT receptor (Caenorhabditis elegans, UniProt G5EBR3+Q17328, F276W); assay: Whole-cell patch clamp in CHO cells, GluClαF276W/βWT receptor; assay type: cell-based; conditions: 500 nM IVM, -60 mV
T5 construct: entry codes of the full-length subunits used in this study; expressed in transfected cells; host or cells: CHO cells, transient co-transfection 1:1, pcDNA3.1
T5 sequence (G5EBR3 21-461 F276W, one chain of several): as the sequence (G5EBR3 21-461 P192M, one chain of several) above, with M172P, F256W counted along it
Experimental: as §1, with “For high-level expression of the GluClαF276A/βWT mutant receptor in experiments assigned to determine its IVM-EC50, we used the X-tremeGENE HP DNA Transfection Reagent (Roche Life Science). Recordings were performed 72–96 h following the transfection.” left out
as §2

wild type GluClα/βR = tested on: wild type GluClα/βR; set-up: method as in Cully et al., [1994]; conditions: 5 nM IVM, Xenopus oocytes; ref Cully et al., [1994]; cited from earlier work
[1] = cumulative IVM concentrations, -60 mV

SMILES: CC[C@H](C)[C@H]1O[C@]2(CC[C@@H]1C)C[C@@H]1C[C@@H](C/C=C(\C)[C@@H](O[C@H]3C[C@H](OC)[C@@H](O[C@H]4C[C@H](OC)[C@@H](O)[C@H](C)O4)[C@H](C)O3)[C@@H](C)/C=C/C=C3\CO[C@@H]4[C@H](O)C(C)=C[C@@H](C(=O)O1)[C@]34O)O2 [IVM, ivermectin]
- Fold decrease in Glu-EC50 observed after pre-exposure to IVM (GluClαWT/βWT receptor; 7 nM IVM): ~ 5 fold and 5 fold
- fold-potentiation of Glu-elicited response by IVM (GluClαWT/βWT receptor; 0.3 mM Glu before and after exposure to 7 nM IVM): ~ 6 fold and 5.9 ± 0.6 fold
- IVM (500 nM) Amplitude (GluClαWT/βWT receptor; CHO cells, 500 nM IVM, -60 mV): 1.8 ± 0.1 nA
- EC50 (GluClαWT/βWT receptor; [1]): 40 nM
- Hill coefficient of activation by IVM (GluClαWT/βWT receptor; [1]): 1.5 and 1.5 ± 0.2
- IVM (500 nM) Amplitude (GluClαP192M/βWT receptor): 1.4 ± 0.2 nA
- IVM (500 nM) Amplitude (GluClαY194R/βWT receptor): 2.1 ± 0.5 nA
- IVM (500 nM) Amplitude (GluClαE273R/βWT receptor): 1.0 ± 0.2 nA
- IVM (500 nM) Amplitude (GluClαF276W/βWT receptor): 1.2 ± 0.2 nA
- potentiation of Glu-sensitive currents by IVM (wild type GluClα/βR): ~ 5 fold
